Results as given in PubChem BioAssay (NCI).
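Grown in 96-well plates, cells were treated for 48 hours with each compound at five concentrations. Insufficient inhibition: endpoint recorded as highest concentration tested. At the TGI there is no net growth.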

system: MCF7 breast; assay: DTP human tumour cell line panel, 48 h

`CCN(CC)C(=O)Cn1c(C)cc2ccccc21` and `c1ccc2c(c1)ccn2CCc1c[nH]c2ccccc12` cannot be ordered by TGI: greater than 100 µM for the first, greater than 10 µM for the second.

First: CC1(C)NC2C(=O)c3c([nH]c4ccccc34)[C@]3(C)CCC1CC23 (some centres not stated)
Second: O=Cc1ccc2c(c1)CC1(Cc3ccccc3C1)C2
The TGI of the first is higher: greater than 100 µM for the first, 66.4 µM for the second.

`COc1ccc2ccccc2c1/C=C/C(=O)c1ccccc1` and `O=C(N/N=C\c1cccc2c([N+](=O)[O-])cccc12)Nc1ccccc1` are within 1.5-fold of each other in TGI: 18.6 µM for the first, 26.7 µM for the second.

Compared with `C[C@]12CCC(=O)O[C@H]1CCCCO2`, `O=C1C(CN2CCCCC2)CCC1CN1CCCCC1` (configuration not stated) is lower in TGI: greater than 100 µM for the first, 43 µM for the second.

`CC(C)=CCC/C(C)=C/C=C/C(C)=C/C=C/C(C)=C/C=C/C=C(C)/C=C/C=C(C)/C=C/[C@H]1C(C(C)(C)O)CC[C@]1(C)O` (some centres not stated) and `CCCCN1C(=O)N(c2ccc(OCC)cc2)C2N(CCCC)C1C(C)(C)C2(C)C` (configuration not stated) are within 1.5-fold of each other in TGI: 35.5 µM for the first, 47.5 µM for the second.

`CC1=NNC(N)=N/C1=C\C(Sc1ccc(Cl)cc1)c1ccc([N+](=O)[O-])cc1` (configuration not stated) and `O=C1/C(=C/c2ccc([N+](=O)[O-])cc2)C(=O)N(c2ccccc2)C1c1ccccc1` (configuration not stated) cannot be ordered by TGI: greater than 100 µM for the first, greater than 10 µM for the second.

`OCC(O)COCn1nncc1Cn1ncc2c(SCc3ccccc3)ncnc21` (configuration not stated) and `O=C(O)Cc1cccc2c(=O)c3ccccc3oc12` cannot be ordered by TGI: greater than 100 µM for the first, greater than 100 µM for the second.

Compared with `O=C1CSC(c2cccc(Oc3ccccc3)c2)N1c1ccc(Cl)cc1` (configuration not stated), `Cc1cc(S(=O)(=O)N=C2N(Cc3ccccc3)CCN2Cc2ccccc2)c(S)cc1Cl` is higher in TGI: 38.5 µM for the first, greater than 100 µM for the second.

`Nc1nc(N)c2ncn(-c3ccc(Cl)cc3)c2n1` and `Oc1c(CN2CCOCC2)ccc2cccnc12` cannot be ordered by TGI: greater than 100 µM for the first, greater than 10 µM for the second.

`COc1cc(CNCc2cc(OC)c(OC)c(OC)c2)cc(OC)c1OC` and `CCOCc1nc2c(OC)cc(-c3nc4ccc(N5CCN(C)CC5)cc4[nH]3)c(OC)c2[nH]1` cannot be ordered by TGI: greater than 10 µM for the first, greater than 100 µM for the second.

Going from `CC(=O)OCC12C(=O)C[C@@H](C)C3(CC(c4ccoc4)OC3=O)C1CCC(OC(C)=O)C21CO1` (some centres not stated) to `COc1cccc(-c2ccc3c4c2O[C@H]2C(=O)CC[C@@]5(O)[C@@H](C3)N(CC3CC3)CC[C@]425)c1`, the TGI falls from greater than 100 µM to 31 µM.

`CON(C)C(=O)CNC(=O)OCC1c2ccccc2-c2ccccc21` and `CCOC(=O)N/N=C(/N)c1cccc([N+](=O)[O-])c1` cannot be ordered by TGI: greater than 100 µM for the first, greater than 100 µM for the second.

First: O=C1/C(=N/O)Cc2c(Br)ccc(Br)c21
Second: COC1=C(OC)C(=O)C(Cc2c(C)nc3sc(C)cn23)=C(C)C1=O
The TGI of the first is higher: greater than 100 µM for the first, 59.9 µM for the second.

`CSc1ncnc2c1ncn2C1CC(Oc2ccc(C)cc2)C(COc2ccc(C)cc2)O1` (configuration not stated) and `COCN(CCC1=CCCCC1)C(=O)OC` cannot be ordered by TGI: greater than 100 µM for the first, greater than 100 µM for the second.

system: MDA-MB-231 breast; assay: DTP human tumour cell line panel, 48 h

`CCN(CC)C(=O)Cn1c(C)cc2ccccc21` and `c1ccc2c(c1)ccn2CCc1c[nH]c2ccccc12` cannot be ordered by TGI: greater than 100 µM for the first, greater than 10 µM for the second.

Going from `CC1(C)NC2C(=O)c3c([nH]c4ccccc34)[C@]3(C)CCC1CC23` (some centres not stated) to `O=Cc1ccc2c(c1)CC1(Cc3ccccc3C1)C2`, the TGI falls from greater than 100 µM to 30.4 µM.

Compared with `COc1ccc2ccccc2c1/C=C/C(=O)c1ccccc1`, `O=C(N/N=C\c1cccc2c([N+](=O)[O-])cccc12)Nc1ccccc1` is 6.8-fold higher in TGI: 7.31 µM for the first, 49.4 µM for the second.

Compared with `C[C@]12CCC(=O)O[C@H]1CCCCO2`, `O=C1C(CN2CCCCC2)CCC1CN1CCCCC1` (configuration not stated) is lower in TGI: greater than 100 µM for the first, 42.3 µM for the second.

Compared with `CC(C)=CCC/C(C)=C/C=C/C(C)=C/C=C/C(C)=C/C=C/C=C(C)/C=C/C=C(C)/C=C/[C@H]1C(C(C)(C)O)CC[C@]1(C)O` (some centres not stated), `CCCCN1C(=O)N(c2ccc(OCC)cc2)C2N(CCCC)C1C(C)(C)C2(C)C` (configuration not stated) is higher in TGI: 66.9 µM for the first, greater than 100 µM for the second.

`CC1=NNC(N)=N/C1=C\C(Sc1ccc(Cl)cc1)c1ccc([N+](=O)[O-])cc1` (configuration not stated) and `O=C1/C(=C/c2ccc([N+](=O)[O-])cc2)C(=O)N(c2ccccc2)C1c1ccccc1` (configuration not stated) cannot be ordered by TGI: greater than 100 µM for the first, greater than 10 µM for the second.

`OCC(O)COCn1nncc1Cn1ncc2c(SCc3ccccc3)ncnc21` (configuration not stated) and `O=C(O)Cc1cccc2c(=O)c3ccccc3oc12` cannot be ordered by TGI: greater than 100 µM for the first, greater than 100 µM for the second.

`O=C1CSC(c2cccc(Oc3ccccc3)c2)N1c1ccc(Cl)cc1` (configuration not stated) and `Cc1cc(S(=O)(=O)N=C2N(Cc3ccccc3)CCN2Cc2ccccc2)c(S)cc1Cl` cannot be ordered by TGI: greater than 100 µM for the first, greater than 100 µM for the second.

`Nc1nc(N)c2ncn(-c3ccc(Cl)cc3)c2n1` and `Oc1c(CN2CCOCC2)ccc2cccnc12` cannot be ordered by TGI: greater than 100 µM for the first, greater than 10 µM for the second.

`COc1cc(CNCc2cc(OC)c(OC)c(OC)c2)cc(OC)c1OC` and `CCOCc1nc2c(OC)cc(-c3nc4ccc(N5CCN(C)CC5)cc4[nH]3)c(OC)c2[nH]1` cannot be ordered by TGI: greater than 10 µM for the first, 81.9 µM for the second.

First: CC(=O)OCC12C(=O)C[C@@H](C)C3(CC(c4ccoc4)OC3=O)C1CCC(OC(C)=O)C21CO1 (some centres not stated)
Second: COc1cccc(-c2ccc3c4c2O[C@H]2C(=O)CC[C@@]5(O)[C@@H](C3)N(CC3CC3)CC[C@]425)c1
The TGI of the first is higher: greater than 100 µM for the first, 30.3 µM for the second.

`CON(C)C(=O)CNC(=O)OCC1c2ccccc2-c2ccccc21` and `CCOC(=O)N/N=C(/N)c1cccc([N+](=O)[O-])c1` cannot be ordered by TGI: greater than 100 µM for the first, greater than 100 µM for the second.

Compared with `O=C1/C(=N/O)Cc2c(Br)ccc(Br)c21`, `COC1=C(OC)C(=O)C(Cc2c(C)nc3sc(C)cn23)=C(C)C1=O` is lower in TGI: greater than 100 µM for the first, 30.2 µM for the second.

`CSc1ncnc2c1ncn2C1CC(Oc2ccc(C)cc2)C(COc2ccc(C)cc2)O1` (configuration not stated) and `COCN(CCC1=CCCCC1)C(=O)OC` cannot be ordered by TGI: greater than 100 µM for the first, greater than 100 µM for the second.

system: MDA-N; assay: DTP human tumour cell line panel, 48 h

`CCN(CC)C(=O)Cn1c(C)cc2ccccc21` and `c1ccc2c(c1)ccn2CCc1c[nH]c2ccccc12` cannot be ordered by TGI: greater than 100 µM for the first, greater than 10 µM for the second.

Compared with `CC1(C)NC2C(=O)c3c([nH]c4ccccc34)[C@]3(C)CCC1CC23` (some centres not stated), `O=Cc1ccc2c(c1)CC1(Cc3ccccc3C1)C2` is lower in TGI: greater than 100 µM for the first, 38.9 µM for the second.

Going from `COc1ccc2ccccc2c1/C=C/C(=O)c1ccccc1` to `O=C(N/N=C\c1cccc2c([N+](=O)[O-])cccc12)Nc1ccccc1`, the TGI rises from 13.4 µM to 32.8 µM (2.4-fold).

First: C[C@]12CCC(=O)O[C@H]1CCCCO2
Second: O=C1C(CN2CCCCC2)CCC1CN1CCCCC1 (configuration not stated)
The TGI of the first is higher: greater than 100 µM for the first, 22.2 µM for the second.

Going from `CC(C)=CCC/C(C)=C/C=C/C(C)=C/C=C/C(C)=C/C=C/C=C(C)/C=C/C=C(C)/C=C/[C@H]1C(C(C)(C)O)CC[C@]1(C)O` (some centres not stated) to `CCCCN1C(=O)N(c2ccc(OCC)cc2)C2N(CCCC)C1C(C)(C)C2(C)C` (configuration not stated), the TGI rises from 81.6 µM to greater than 100 µM.

`CC1=NNC(N)=N/C1=C\C(Sc1ccc(Cl)cc1)c1ccc([N+](=O)[O-])cc1` (configuration not stated) and `O=C1/C(=C/c2ccc([N+](=O)[O-])cc2)C(=O)N(c2ccccc2)C1c1ccccc1` (configuration not stated) cannot be ordered by TGI: greater than 100 µM for the first, greater than 10 µM for the second.

`OCC(O)COCn1nncc1Cn1ncc2c(SCc3ccccc3)ncnc21` (configuration not stated) and `O=C(O)Cc1cccc2c(=O)c3ccccc3oc12` cannot be ordered by TGI: greater than 100 µM for the first, greater than 100 µM for the second.

Compared with `O=C1CSC(c2cccc(Oc3ccccc3)c2)N1c1ccc(Cl)cc1` (configuration not stated), `Nc1nc(N)c2ncn(-c3ccc(Cl)cc3)c2n1` is higher in TGI: 63.6 µM for the first, greater than 100 µM for the second.

`COc1cc(CNCc2cc(OC)c(OC)c(OC)c2)cc(OC)c1OC` and `CCOCc1nc2c(OC)cc(-c3nc4ccc(N5CCN(C)CC5)cc4[nH]3)c(OC)c2[nH]1` cannot be ordered by TGI: greater than 10 µM for the first, 35.9 µM for the second.

`Oc1c(CN2CCOCC2)ccc2cccnc12` and `COc1cccc(-c2ccc3c4c2O[C@H]2C(=O)CC[C@@]5(O)[C@@H](C3)N(CC3CC3)CC[C@]425)c1` cannot be ordered by TGI: greater than 10 µM for the first, 39.3 µM for the second.

`CC(=O)OCC12C(=O)C[C@@H](C)C3(CC(c4ccoc4)OC3=O)C1CCC(OC(C)=O)C21CO1` (some centres not stated) and `CON(C)C(=O)CNC(=O)OCC1c2ccccc2-c2ccccc21` cannot be ordered by TGI: greater than 100 µM for the first, greater than 100 µM for the second.

`O=C1/C(=N/O)Cc2c(Br)ccc(Br)c21` and `CCOC(=O)N/N=C(/N)c1cccc([N+](=O)[O-])c1` cannot be ordered by TGI: greater than 100 µM for the first, greater than 100 µM for the second.

Compared with `CSc1ncnc2c1ncn2C1CC(Oc2ccc(C)cc2)C(COc2ccc(C)cc2)O1` (configuration not stated), `COC1=C(OC)C(=O)C(Cc2c(C)nc3sc(C)cn23)=C(C)C1=O` is lower in TGI: greater than 100 µM for the first, 32.4 µM for the second.
